Measured values: paper PMC7259601 (PLoS ONE, 2020)

Tests used:
Assay in all cases: CEREP Diversity Panel
Assay type in all cases: binding
[1] = biological target: T1, 5-HT transporter (h) (antagonist radioligand) (Homo sapiens, UniProt P31645)
T1 construct: purchased CEREP (Eurofins Cerep)
Method: (§1) […]. MAO-A inhibition at 10 μM was 37%, in line with internal data.

[2] = biological target: T2, A1 (h) (antagonist radioligand) (Homo sapiens, UniProt P30542)
T2 construct: purchased CEREP (Eurofins Cerep)
Method: as §1

[3] = biological target: T3, A2A (h) (agonist radioligand) (Homo sapiens, UniProt P29274)
T3 construct: purchased CEREP (Eurofins Cerep)
T3 sequence (P29274 whole entry): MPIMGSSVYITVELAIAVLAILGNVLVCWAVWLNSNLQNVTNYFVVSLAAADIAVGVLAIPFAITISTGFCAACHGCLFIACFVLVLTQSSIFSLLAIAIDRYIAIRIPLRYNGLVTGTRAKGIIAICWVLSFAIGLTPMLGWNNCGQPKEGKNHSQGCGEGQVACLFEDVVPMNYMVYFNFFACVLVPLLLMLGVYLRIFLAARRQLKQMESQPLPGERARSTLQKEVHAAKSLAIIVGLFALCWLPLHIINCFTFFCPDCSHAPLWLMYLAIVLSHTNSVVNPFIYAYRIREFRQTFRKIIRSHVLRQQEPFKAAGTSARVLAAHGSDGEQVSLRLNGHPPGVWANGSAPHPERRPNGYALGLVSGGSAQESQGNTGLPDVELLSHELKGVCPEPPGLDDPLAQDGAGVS
Method: as §1

[4] = biological target: T4, A3 (h) (agonist radioligand) (Homo sapiens, UniProt P0DMS8)
T4 construct: purchased CEREP (Eurofins Cerep)
Method: as §1

[5] = biological target: T5, B2 (h) (agonist radioligand) (Homo sapiens, UniProt P30411)
T5 construct: purchased CEREP (Eurofins Cerep)
Method: as §1

[6] = biological target: T6, BLT1 (LTB4) (h) (agonist radioligand) (Homo sapiens, UniProt Q15722)
T6 construct: purchased CEREP (Eurofins Cerep)
T6 sequence (Q15722 whole entry): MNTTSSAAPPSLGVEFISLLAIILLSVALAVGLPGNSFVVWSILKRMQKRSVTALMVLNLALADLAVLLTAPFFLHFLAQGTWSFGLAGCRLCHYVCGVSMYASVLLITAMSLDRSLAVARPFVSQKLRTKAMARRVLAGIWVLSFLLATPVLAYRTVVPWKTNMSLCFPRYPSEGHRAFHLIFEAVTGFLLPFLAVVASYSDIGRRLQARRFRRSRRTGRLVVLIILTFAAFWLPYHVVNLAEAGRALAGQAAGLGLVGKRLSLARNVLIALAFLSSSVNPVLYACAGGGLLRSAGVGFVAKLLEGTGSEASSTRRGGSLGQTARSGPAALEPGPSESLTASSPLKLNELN
Method: as §1

[7] = biological target: T7, CB1 (h) (agonist radioligand) (Homo sapiens, UniProt P21554)
T7 construct: purchased CEREP (Eurofins Cerep)
T7 sequence (P21554 whole entry): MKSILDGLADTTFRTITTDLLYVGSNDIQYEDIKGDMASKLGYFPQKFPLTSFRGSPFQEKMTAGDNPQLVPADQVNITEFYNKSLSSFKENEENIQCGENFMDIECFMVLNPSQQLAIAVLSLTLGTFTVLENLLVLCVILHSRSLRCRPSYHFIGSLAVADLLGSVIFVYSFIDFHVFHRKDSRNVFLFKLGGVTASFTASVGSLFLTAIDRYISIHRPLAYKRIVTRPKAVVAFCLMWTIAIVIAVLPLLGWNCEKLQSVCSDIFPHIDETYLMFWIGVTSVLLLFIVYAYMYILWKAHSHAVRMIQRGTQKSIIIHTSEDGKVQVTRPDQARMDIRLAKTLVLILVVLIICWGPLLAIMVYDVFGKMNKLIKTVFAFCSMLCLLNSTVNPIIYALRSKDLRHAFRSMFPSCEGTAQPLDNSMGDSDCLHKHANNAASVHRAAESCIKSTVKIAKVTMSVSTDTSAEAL
Method: as §1

[8] = biological target: T8, CB2 (h) (agonist radioligand) (Homo sapiens, UniProt P34972)
T8 construct: purchased CEREP (Eurofins Cerep)
Method: as §1

[9] = biological target: T9, CCK1 (CCKA) (h) (agonist radioligand) (Homo sapiens, UniProt P32238)
T9 construct: purchased CEREP (Eurofins Cerep)
Method: as §1

[10] = biological target: T10, CCK2 (CCKB) (h) (agonist radioligand) (Homo sapiens, UniProt P32239)
T10 construct: purchased CEREP (Eurofins Cerep)
T10 sequence (P32239 whole entry): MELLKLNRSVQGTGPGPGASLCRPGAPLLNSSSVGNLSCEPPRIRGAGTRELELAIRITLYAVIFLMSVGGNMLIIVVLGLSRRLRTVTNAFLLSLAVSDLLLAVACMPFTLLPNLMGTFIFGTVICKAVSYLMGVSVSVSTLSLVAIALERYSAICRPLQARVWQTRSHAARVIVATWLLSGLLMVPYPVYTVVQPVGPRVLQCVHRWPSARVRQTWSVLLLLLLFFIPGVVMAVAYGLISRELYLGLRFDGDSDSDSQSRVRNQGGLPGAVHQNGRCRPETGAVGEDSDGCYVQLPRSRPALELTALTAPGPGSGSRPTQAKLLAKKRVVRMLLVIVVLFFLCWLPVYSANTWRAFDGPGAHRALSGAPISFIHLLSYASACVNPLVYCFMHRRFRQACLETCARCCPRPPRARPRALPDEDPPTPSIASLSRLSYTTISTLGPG
Method: as §1

[11] = biological target: T11, CRF1 (h) (agonist radioligand) (Homo sapiens, UniProt P34998)
T11 construct: purchased CEREP (Eurofins Cerep)
Method: as §1

[12] = biological target: T12, CysLT1 (LTD4) (h) (agonist radioligand) (Homo sapiens, UniProt Q9Y271)
T12 construct: purchased CEREP (Eurofins Cerep)
Method: as §1

[13] = biological target: T13, D1 (h) (antagonist radioligand) (Homo sapiens, UniProt P21728)
T13 construct: purchased CEREP (Eurofins Cerep)
Method: as §1

[14] = biological target: T14, D2S (h) (antagonist radioligand) (Homo sapiens, UniProt P14416)
T14 construct: purchased CEREP (Eurofins Cerep)
T14 sequence (P14416 1-414 isoform P14416-2): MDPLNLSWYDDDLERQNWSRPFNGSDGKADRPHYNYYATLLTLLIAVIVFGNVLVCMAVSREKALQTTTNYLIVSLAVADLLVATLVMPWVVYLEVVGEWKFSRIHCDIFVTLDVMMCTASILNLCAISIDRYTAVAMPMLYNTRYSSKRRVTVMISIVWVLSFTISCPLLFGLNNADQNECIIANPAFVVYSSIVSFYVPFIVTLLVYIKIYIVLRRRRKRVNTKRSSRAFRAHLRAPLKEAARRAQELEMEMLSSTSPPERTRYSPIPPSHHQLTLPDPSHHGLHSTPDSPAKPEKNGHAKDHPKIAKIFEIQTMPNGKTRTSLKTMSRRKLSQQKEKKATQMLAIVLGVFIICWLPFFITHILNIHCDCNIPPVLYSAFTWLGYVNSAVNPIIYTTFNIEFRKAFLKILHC
Method: as §1

[15] = biological target: T15, EP2 (h) (agonist radioligand) (Homo sapiens, UniProt P43116)
T15 construct: purchased CEREP (Eurofins Cerep)
Method: as §1

[16] = biological target: T16, ETA (h) (agonist radioligand) (Homo sapiens, UniProt P25101)
T16 construct: purchased CEREP (Eurofins Cerep)
Method: as §1

[17] = biological target: T17, ETB (h) (agonist radioligand) (Homo sapiens, UniProt P24530)
T17 construct: purchased CEREP (Eurofins Cerep)
T17 sequence (P24530 27-442): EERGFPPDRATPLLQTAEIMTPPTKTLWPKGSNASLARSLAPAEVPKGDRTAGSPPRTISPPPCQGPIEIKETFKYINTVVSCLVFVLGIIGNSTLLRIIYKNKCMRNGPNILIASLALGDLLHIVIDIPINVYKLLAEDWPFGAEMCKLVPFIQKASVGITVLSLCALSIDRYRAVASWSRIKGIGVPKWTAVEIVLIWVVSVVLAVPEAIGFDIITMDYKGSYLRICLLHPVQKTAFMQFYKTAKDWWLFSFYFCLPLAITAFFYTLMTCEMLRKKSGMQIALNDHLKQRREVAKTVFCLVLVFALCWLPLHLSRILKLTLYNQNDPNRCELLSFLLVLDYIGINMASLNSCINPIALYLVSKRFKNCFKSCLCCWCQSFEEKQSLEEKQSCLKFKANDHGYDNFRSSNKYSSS
Method: as §1

[18] = biological target: T18, GR (h) (agonist radioligand) (Homo sapiens, UniProt P04150)
T18 construct: purchased CEREP (Eurofins Cerep)
Method: as §1

[19] = biological target: T19, H1 (h) (antagonist radioligand) (Homo sapiens, UniProt P35367)
T19 construct: purchased CEREP (Eurofins Cerep)
Method: as §1

[20] = biological target: T20, H2 (h) (antagonist radioligand) (Homo sapiens, UniProt P25021)
T20 construct: purchased CEREP (Eurofins Cerep)
Method: as §1

[21] = biological target: T21, IP (PGI2) (h) (agonist radioligand) (Homo sapiens, UniProt P43119)
T21 construct: purchased CEREP (Eurofins Cerep)
Method: as §1

[22] = biological target: T22, MC4 (h) (agonist radioligand) (Homo sapiens, UniProt P32245)
T22 construct: purchased CEREP (Eurofins Cerep)
T22 sequence (P32245 whole entry): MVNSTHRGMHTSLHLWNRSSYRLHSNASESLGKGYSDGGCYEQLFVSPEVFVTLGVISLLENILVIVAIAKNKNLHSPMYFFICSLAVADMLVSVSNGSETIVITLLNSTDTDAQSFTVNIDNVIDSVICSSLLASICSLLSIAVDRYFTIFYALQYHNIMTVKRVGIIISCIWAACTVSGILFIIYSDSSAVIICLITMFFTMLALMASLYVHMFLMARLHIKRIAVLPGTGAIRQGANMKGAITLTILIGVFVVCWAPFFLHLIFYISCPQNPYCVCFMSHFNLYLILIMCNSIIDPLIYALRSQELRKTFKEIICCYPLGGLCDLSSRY
Method: as §1

[23] = biological target: T23, N neuronal a 4b 2 (h) (agonist radioligand) (Homo sapiens, UniProt P17787+P43681)
T23 construct: purchased CEREP (Eurofins Cerep)
Method: as §1

[24] = biological target: T24, NK2 (h) (agonist radioligand) (Homo sapiens, UniProt P21452)
T24 construct: purchased CEREP (Eurofins Cerep)
Method: as §1

[25] = biological target: T25, NOP (ORL1) (h) (agonist radioligand) (Homo sapiens, UniProt P41146)
T25 construct: purchased CEREP (Eurofins Cerep)
T25 sequence (P41146 whole entry): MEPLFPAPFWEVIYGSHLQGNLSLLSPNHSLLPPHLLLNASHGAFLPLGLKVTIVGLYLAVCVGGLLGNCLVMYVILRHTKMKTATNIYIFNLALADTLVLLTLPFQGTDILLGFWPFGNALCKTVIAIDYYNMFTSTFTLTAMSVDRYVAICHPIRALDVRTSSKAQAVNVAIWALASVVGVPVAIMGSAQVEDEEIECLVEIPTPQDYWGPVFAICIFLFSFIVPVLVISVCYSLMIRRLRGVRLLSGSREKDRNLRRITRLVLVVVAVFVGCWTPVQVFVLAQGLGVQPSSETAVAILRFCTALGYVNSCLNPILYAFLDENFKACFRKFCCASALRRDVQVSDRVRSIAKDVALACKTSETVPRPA
Method: as §1

[26] = biological target: T26, PPARg (h) (agonist radioligand) (Homo sapiens, UniProt P37231)
T26 construct: purchased CEREP (Eurofins Cerep)
T26 sequence (P37231 whole entry): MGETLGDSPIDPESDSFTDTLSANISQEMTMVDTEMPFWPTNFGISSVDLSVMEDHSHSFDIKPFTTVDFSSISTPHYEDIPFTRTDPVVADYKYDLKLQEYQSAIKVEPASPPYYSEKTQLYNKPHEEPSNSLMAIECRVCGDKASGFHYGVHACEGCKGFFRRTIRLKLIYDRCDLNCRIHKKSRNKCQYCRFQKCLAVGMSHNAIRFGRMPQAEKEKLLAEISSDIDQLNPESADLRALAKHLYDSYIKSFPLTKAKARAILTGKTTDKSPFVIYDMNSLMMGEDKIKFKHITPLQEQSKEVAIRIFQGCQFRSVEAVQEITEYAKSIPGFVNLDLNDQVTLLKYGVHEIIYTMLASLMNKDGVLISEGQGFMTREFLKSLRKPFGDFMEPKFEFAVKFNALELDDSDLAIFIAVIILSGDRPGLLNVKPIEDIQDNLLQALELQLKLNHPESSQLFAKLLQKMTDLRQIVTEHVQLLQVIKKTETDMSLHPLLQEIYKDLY
Method: as §1

[27] = biological target: T27, PR (h) (agonist radioligand) (Homo sapiens, UniProt P06401)
T27 construct: purchased CEREP (Eurofins Cerep)
Method: as §1

[28] = biological target: T28, TRH1 (h) (agonist radioligand) (Homo sapiens, UniProt P34981)
T28 construct: purchased CEREP (Eurofins Cerep)
Method: as §1

[29] = biological target: T29, V2 (h) (agonist radioligand) (Homo sapiens, UniProt P30518)
T29 construct: purchased CEREP (Eurofins Cerep)
Method: as §1

[30] = biological target: T30, dopamine transporter (h) (antagonist radioligand) (Homo sapiens, UniProt Q01959)
T30 construct: purchased CEREP (Eurofins Cerep)
Method: as §1

[31] = biological target: T31, norepinephrine transporter (h) (antagonist radioligand) (Homo sapiens, UniProt P23975)
T31 construct: purchased CEREP (Eurofins Cerep)
T31 sequence (P23975 whole entry): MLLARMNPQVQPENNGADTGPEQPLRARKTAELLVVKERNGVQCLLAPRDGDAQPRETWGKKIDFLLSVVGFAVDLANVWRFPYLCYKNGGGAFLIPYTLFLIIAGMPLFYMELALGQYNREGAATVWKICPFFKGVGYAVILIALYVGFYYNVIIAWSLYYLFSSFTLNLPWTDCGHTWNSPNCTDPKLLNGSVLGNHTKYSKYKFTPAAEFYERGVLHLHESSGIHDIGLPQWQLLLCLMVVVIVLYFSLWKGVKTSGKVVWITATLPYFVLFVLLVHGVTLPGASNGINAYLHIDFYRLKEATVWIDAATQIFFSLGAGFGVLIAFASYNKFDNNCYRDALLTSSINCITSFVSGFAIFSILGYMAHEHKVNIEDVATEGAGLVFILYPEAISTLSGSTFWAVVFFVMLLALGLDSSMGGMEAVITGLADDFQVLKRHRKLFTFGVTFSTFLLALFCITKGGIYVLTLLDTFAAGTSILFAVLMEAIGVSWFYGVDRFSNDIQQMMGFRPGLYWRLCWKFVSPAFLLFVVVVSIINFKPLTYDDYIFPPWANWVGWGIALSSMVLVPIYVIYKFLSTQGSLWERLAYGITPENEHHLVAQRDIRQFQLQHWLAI
Method: as §1

T1 sequence (P31645 whole entry): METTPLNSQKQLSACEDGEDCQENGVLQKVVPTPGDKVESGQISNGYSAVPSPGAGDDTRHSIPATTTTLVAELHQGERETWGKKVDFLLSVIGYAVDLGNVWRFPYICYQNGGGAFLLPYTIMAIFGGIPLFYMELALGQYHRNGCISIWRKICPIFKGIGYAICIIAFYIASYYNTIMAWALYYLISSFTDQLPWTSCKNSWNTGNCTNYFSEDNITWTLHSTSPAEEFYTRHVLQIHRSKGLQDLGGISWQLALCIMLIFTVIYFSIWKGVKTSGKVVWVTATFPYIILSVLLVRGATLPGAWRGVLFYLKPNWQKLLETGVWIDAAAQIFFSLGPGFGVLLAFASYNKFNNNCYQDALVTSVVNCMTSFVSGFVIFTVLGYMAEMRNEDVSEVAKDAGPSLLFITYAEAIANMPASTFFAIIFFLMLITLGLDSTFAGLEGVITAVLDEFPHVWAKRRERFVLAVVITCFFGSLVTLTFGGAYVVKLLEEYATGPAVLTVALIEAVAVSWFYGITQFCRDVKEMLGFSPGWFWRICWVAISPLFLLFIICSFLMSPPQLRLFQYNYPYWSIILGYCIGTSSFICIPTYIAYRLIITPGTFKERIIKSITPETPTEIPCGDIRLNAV

## Nc1nnc(CN[C@@H]2C[C@H]2c2ccc(OCc3ccccc3)cc2)o1 [ORY-2001, vafidemstat]
[1]
  inhibition at 10 µM: 2%
[2]
  inhibition at 10 µM: 0%
[3]
  inhibition at 10 µM: -8%
[4]
  inhibition at 10 µM: -4%
[5]
  inhibition at 10 µM: -5%
[6]
  inhibition at 10 µM: 33%
[7]
  inhibition at 10 µM: 5%
[8]
  inhibition at 10 µM: 14%
[9]
  inhibition at 10 µM: -2%
[10]
  inhibition at 10 µM: -15%
[11]
  inhibition at 10 µM: 18%
[12]
  inhibition at 10 µM: 4%
[13]
  inhibition at 10 µM: -5%
[14]
  inhibition at 10 µM: -8%
[15]
  inhibition at 10 µM: 18%
[16]
  inhibition at 10 µM: -23%
[17]
  inhibition at 10 µM: -8%
[18]
  inhibition at 10 µM: -9%
[19]
  inhibition at 10 µM: -9%
[20]
  inhibition at 10 µM: -3%
[21]
  inhibition at 10 µM: 31%
[22]
  inhibition at 10 µM: 7%
[23]
  inhibition at 10 µM: -3%
[24]
  inhibition at 10 µM: 2%
[25]
  inhibition at 10 µM: 0%
[26]
  inhibition at 10 µM: 4%
[27]
  inhibition at 10 µM: -11%
[28]
  inhibition at 10 µM: 3%
[29]
  inhibition at 10 µM: -12%
[30]
  inhibition at 10 µM: 33%
[31]
  inhibition at 10 µM: 26%
